Source: patent US12492173B2, “Herbicidal substituted N-tetrazolyl aryl carboxamides” (Bayer Aktiengesellschaft, priority 2019, dated 2025)

What was measured:
Assay type in all cases: in vivo
Echinochloa crus-galli = experiment: Pre-emergence herbicidal action, ECHCG; conditions: dosage 320 g/ha, scored visually after 3 weeks vs untreated controls (100% = plants have died)
Summary of the method: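 Seeds sown in sandy loam in pots and covered with soil; compounds formulated as WP or EC were sprayed onto the soil surface as aqueous suspension/emulsion at 600 to 800 l/ha water with 0.2% wetting agent. Greenhouse growth; visual damage scored after 3 weeks versus untreated controls (100% = plants died, 0% = like control).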

Abutilon theophrasti = experiment: Post-emergence herbicidal action, ABUTH; design: key: % herbicidal action vs untreated; 100 = plants died, 0 = like control
Summary of the method: (§1)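 Foliar application at the one-leaf stage of greenhouse-grown plants in sandy loam; compound applied as WP or EC in 600–800 l/ha water containing 0.2% wetting agent. Scores are visual percentages (0% like control, 100% plants died) taken after roughly 3 weeks.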

Alopecurus myosuroides = experiment: Post-emergence herbicidal action, ALOMY; design: key: % herbicidal action vs untreated; 100 = plants died, 0 = like control
Summary of the method: as §1

Setaria viridis = experiment: Post-emergence herbicidal action, SETVI; design: key: % herbicidal action vs untreated; 100 = plants died, 0 = like control
Summary of the method: as §1

Stellaria media = experiment: Post-emergence herbicidal action, STEME; design: key: % herbicidal action vs untreated; 100 = plants died, 0 = like control
Summary of the method: as §1

Viola tricolor = experiment: Post-emergence herbicidal action, VIOTR; design: key: % herbicidal action vs untreated; 100 = plants died, 0 = like control
Summary of the method: as §1

[1] = comparative experiment, post-emergence, 5 g of a.i./ha

Row | Structure (SMILES) | herbicidal activity ECHCG (Echinochloa crus-galli) | herbicidal action ABUTH (Abutilon theophrasti; post-emergence, dosage 80 g/ha) | Herbicidal action against ALOMY (Alopecurus myosuroides; [1]) | herbicidal action ALOMY (Alopecurus myosuroides; post-emergence, dosage 80 g/ha) | herbicidal action SETVI (Setaria viridis; post-emergence, dosage 80 g/ha) | herbicidal action STEME (Stellaria media; post-emergence, dosage 80 g/ha) | herbicidal action VIOTR (Viola tricolor; post-emergence, dosage 80 g/ha) | herbicidal action ABUTH (Abutilon theophrasti; Dosage 80 g/ha) | herbicidal action ALOMY (Alopecurus myosuroides; Dosage 80 g/ha) | herbicidal action SETVI (Setaria viridis; Dosage 80 g/ha) | herbicidal action STEME (Stellaria media; Dosage 80 g/ha) | herbicidal action VIOTR (Viola tricolor; Dosage 80 g/ha) | Herbicidal action against VIOTR (Viola tricolor; [1])
1 | Cn1nnnc1NC(=O)c1ccc(C(F)(F)F)c(CS(C)(=O)=O)c1Cl [Example 1-298] | 100% | 80% | 70 | 100% | 100% | 100% | 100% | – | – | – | – | – | –
2 | CCSCc1c(C(F)(F)F)ccc(C(=O)Nc2nnnn2CC)c1Br [Example 2-383] | 100% | 100% | – | 80% | 100% | 90% | 100% | – | – | – | – | – | –
3 | CCCn1nnnc1NC(=O)c1ccc(C(F)(F)F)c(CSCC)c1Cl [Example 3-299] | 100% | – | – | – | – | – | – | 90 | 80 | 90 | 100 | 100 | –
4 | CSCc1c(C(F)(F)F)ccc(C(=O)Nc2nnnn2C)c1Cl [Example 1-296] | 100% | 100% | – | 100% | 100% | 100% | 100% | – | – | – | – | – | 100
5 | CCn1nnnc1NC(=O)c1ccc(C(F)(F)F)c(CS(C)(=O)=O)c1SC [Example 2-163] | 100% | – | – | – | – | – | – | 100 | 90 | 90 | 100 | 100 | –
6 | CCCn1nnnc1NC(=O)c1ccc(C(F)(F)F)c(CSC)c1Cl [Example 3-296] | 100% | – | – | – | – | – | – | 100 | 80 | 90 | 100 | 100 | –
7 | CCn1nnnc1NC(=O)c1ccc(C(F)(F)F)c(C[S+](C)[O-])c1Br (centres unmarked) [Example 2-381] | 100% | 90% | – | 80% | 100% | 100% | 100% | – | – | – | – | – | –
8 | CCSCc1c(C(F)(F)F)ccc(C(=O)Nc2nnnn2C)c1C [Example 1-86] | 100% | 80% | – | 80% | 80% | 100% | 100% | – | – | – | – | – | –
9 | CCn1nnnc1NC(=O)c1ccc(C(F)(F)F)c(CSC)c1Br [Example 2-380] | 100% | 80% | – | 80% | 100% | 100% | 100% | – | – | – | – | – | –
10 | CSCc1c(C(F)(F)F)ccc(C(=O)Nc2nnnn2C)c1SC [Example 1-161] | 100% | – | – | – | – | – | – | 90 | 90 | 100 | 100 | 100 | –
11 | CSCc1c(C(F)(F)F)ccc(C(=O)Nc2nnnn2C)c1Br [Example 1-380] | 100% | 90% | – | 90% | 90% | 100% | 100% | – | – | – | – | – | –
12 | CCCn1nnnc1NC(=O)c1ccc(C(F)(F)F)c(CS(C)(=O)=O)c1OC [Example 3-136] | 100% | – | – | – | – | – | – | 100 | 90 | 100 | 100 | 100 | –
13 | CCCn1nnnc1NC(=O)c1ccc(C(F)(F)F)c(CSCC)c1Br [Example 3-383] | 100% | – | – | – | – | – | – | 90 | 80 | 90 | 100 | 100 | –
14 | CCn1nnnc1NC(=O)c1ccc(C(F)(F)F)c(CS(C)(=O)=O)c1Br [Example 2-382] | 100% | – | – | – | – | – | – | 100 | 80 | 90 | 100 | 100 | –
15 | CCn1nnnc1NC(=O)c1ccc(C)c(CSC)c1Cl [Example 2-287] | 100% | – | – | – | – | – | – | 80 | 100 | 90 | 100 | 100 | –
